“And” between values parts separate entries of the source, which are not always exact repeats. Equal entries are not always repeated. Where two headings read alike, the source gives them in different places.
Assays:
Assay type in all cases: cell-based
[1] = target: T1, NR2F6 (Homo sapiens, UniProt P10588); assay: NR2F6 agonist screening, Firefly signal cmpd/DMSO
T1 construct: expressed in transfected cells; also transient transfection
T1 sequence (P10588 1-404): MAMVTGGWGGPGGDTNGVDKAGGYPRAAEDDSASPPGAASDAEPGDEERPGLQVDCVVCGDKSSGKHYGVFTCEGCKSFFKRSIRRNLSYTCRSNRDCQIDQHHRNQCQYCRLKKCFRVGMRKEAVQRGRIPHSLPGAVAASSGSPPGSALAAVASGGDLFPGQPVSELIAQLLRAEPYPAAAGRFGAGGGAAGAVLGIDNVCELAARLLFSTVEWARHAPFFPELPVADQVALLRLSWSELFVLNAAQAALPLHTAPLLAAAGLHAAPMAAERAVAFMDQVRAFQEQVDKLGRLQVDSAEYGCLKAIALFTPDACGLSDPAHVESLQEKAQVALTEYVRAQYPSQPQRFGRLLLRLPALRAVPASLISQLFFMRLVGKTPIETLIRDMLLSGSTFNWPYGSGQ

[2] = system: Renilla; assay: Renilla signal in NR2F6 agonist screening, cmpd/DMSO; conditions: Renilla, F4
[3] = system: HEK293 pGL4; assay: Firefly_pGL signal, cmpd/DMSO (pGL4 control cells); conditions: Homo sapiens
[4] = target: T2, NR2F6 LBD (Homo sapiens, UniProt P10588); assay: NR2F6 LBD transient transfection; conditions: LBD
T2 construct: expressed in transfected cells
T2 sequence (P10588 165-393 limits assumed): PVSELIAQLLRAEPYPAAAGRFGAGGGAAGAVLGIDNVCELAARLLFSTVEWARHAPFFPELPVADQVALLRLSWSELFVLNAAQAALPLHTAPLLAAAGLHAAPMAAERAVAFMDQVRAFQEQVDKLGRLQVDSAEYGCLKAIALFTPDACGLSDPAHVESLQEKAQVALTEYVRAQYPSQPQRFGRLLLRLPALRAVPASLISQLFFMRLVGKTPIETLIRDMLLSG
How it was run: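 LBD-transfected cells treated at 40, 10, 2 and 0.5 μM (4 replicates); cytotoxicity measured in parallel, normalized to DMSO (0%) and zero signal (100%). Higher concentrations excluded where signal loss reflected toxicity.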

[5] = read-out: Renilla, F4, cmpd/DMSO (mean)
[6] = 1% FBS, read-out: Renilla, F4, 1% FBS, cmpd/DMSO (mean)
[7] = 10% FBS, read-out: Renilla, F4, 10% FBS, cmpd/DMSO (mean)
[8] = HEK293, 0.5 uM, pGL4, read-out: Firefly pGL4, cmpd/DMSO (mean)
[9] = HEK293, 2 uM, pGL4, read-out: Firefly pGL4, cmpd/DMSO (mean)
[10] = HEK293, 10 uM, pGL4, read-out: Firefly pGL4, cmpd/DMSO (mean)
[11] = HEK293, 40 uM, pGL4, read-out: Firefly pGL4, cmpd/DMSO (mean)
[12] = HEK293, pGL4, 1% FBS, 0.5 uM, read-out: Firefly, pGL4, 1% FBS, cmpd/DMSO (mean)
[13] = HEK293, pGL4, 1% FBS, 2 uM, read-out: Firefly, pGL4, 1% FBS, cmpd/DMSO (mean)
[14] = HEK293, pGL4, 1% FBS, 10 uM, read-out: Firefly, pGL4, 1% FBS, cmpd/DMSO (mean)
[15] = HEK293, pGL4, 10% FBS, 0.5 uM, read-out: Firefly, pGL4, 10% FBS, cmpd/DMSO (mean)
[16] = HEK293, pGL4, 10% FBS, 2 uM, read-out: Firefly, pGL4, 10% FBS, cmpd/DMSO (mean)
[17] = HEK293, pGL4, 10% FBS, 10 uM, read-out: Firefly, pGL4, 10% FBS, cmpd/DMSO (mean)
[18] = HEK293, pGL4, 1% FBS, 40 uM, read-out: Firefly, pGL4, 1% FBS, cmpd/DMSO (mean)
[19] = HEK293, pGL4, 10% FBS, 40 uM, read-out: Firefly, pGL4, 10% FBS, cmpd/DMSO (mean)

For Cc1cccc(CN[C@H]2CS(=O)(=O)C[C@@H]2S(=O)(=O)c2ccc(Cl)cc2)c1 [Compound D127], the “Firefly F4, cmpd/DMSO (mean)” value ([1]; 0.5 uM) was 1.2, the “Firefly F4, cmpd/DMSO (mean)” value ([1]; 2 uM) was 1.1 and the “Firefly F4, cmpd/DMSO (mean)” value ([1]; 10 uM) was 2.2. For the same compound, the “Firefly F4, cmpd/DMSO (mean)” value ([1]; 40 uM) was 2.0, the “F4, Firefly/Renilla for S/B(F4) > 3” value ([1]; 1% FBS, 10 uM) was 2.7 and the “Firefly, F4/pGL4 for S/B(F4) > 3” value ([1]; 1% FBS, 10 uM) was 1.8. The “F4, Firefly/Renilla for S/B(F4) > 3” value ([1]; 1% FBS, 40 uM) was 1.9, the “Firefly, F4/pGL4 for S/B(F4) > 3” value ([1]; 1% FBS, 40 uM) was 2.4 and the “F4, Firefly/Renilla for S/B(F4) > 3” value ([1]; 10% FBS, 10 uM) was 3.2. For the same compound, the “Firefly, F4/pGL4 for S/B(F4) > 3” value ([1]; 10% FBS, 10 uM) was 2.1, the “F4, Firefly/Renilla for S/B(F4) > 3” value ([1]; 10% FBS, 40 uM) was 2.1 and the “Firefly, F4/pGL4 for S/B(F4) > 3” value ([1]; 10% FBS, 40 uM) was 2.3. For the same compound, the “Firefly, F4, 1% FBS, cmpd/DMSO (mean)” value ([1]; 1% FBS, 0.5 uM) was 1.0 and 1.3, the “Firefly, F4, 1% FBS, cmpd/DMSO (mean)” value ([1]; 1% FBS, 2 uM) was 1.8 and 0.9 and the “Firefly, F4, 10% FBS, cmpd/DMSO (mean)” value ([1]; 10% FBS, 0.5 uM) was 1.2. For the same compound, the “Firefly, F4, 10% FBS, cmpd/DMSO (mean)” value ([1]; 10% FBS, 2 uM) was 1.4 and 0.7, the fold induction at 0.5 µM [2, 5] was 1 and the fold induction at 2 µM [2, 5] was 1. For the same compound, the fold induction at 10 µM [2, 5] was 1.2, the fold induction at 40 µM [2, 5] was 1.3 and the fold induction at 0.5 µM [2, 6] was 1.1. It also gave a fold induction at 2 µM [2, 6] of 1.2, a fold induction at 10 µM [2, 6] of 1.8 and a fold induction at 40 µM [2, 6] of 1.5. For the same compound, the fold induction at 0.5 µM [2, 7] was 1, the fold induction at 2 µM [2, 7] was 1.1 and the fold induction at 10 µM [2, 7] was 1.7. It also gave a fold induction at 0.5 µM [3, 8] of 1, a fold induction at 2 µM [3, 9] of 1.4 and a fold induction at 10 µM [3, 10] of 1.8. The fold induction at 40 µM [3, 11] was 2.6, the fold induction at 0.5 µM [3, 12] was 1.3 and the fold induction at 2 µM [3, 13] was 1.9. The fold induction at 10 µM [3, 14] was 2.7, the fold induction at 0.5 µM [3, 15] was 1.2 and the fold induction at 2 µM [3, 16] was 1.7. The fold induction at 10 µM [3, 17] was 2.7, the “Firefly LBD, cmpd/DMSO (mean)” value ([4]; 0.5 uM) was 1.2 and the “Firefly LBD, cmpd/DMSO (mean)” value ([4]; 2 uM) was 1.2. For the same compound, the “Firefly LBD, cmpd/DMSO (mean)” value ([4]; 10 uM) was 2.3 and the “Firefly LBD, cmpd/DMSO (mean)” value ([4]; 40 uM) was 2.1.
With O=S1(=O)C[C@H](NCCc2cccs2)[C@@H](S(=O)(=O)c2ccc(Cl)cc2)C1 [Compound D128] the “Firefly F4, cmpd/DMSO (mean)” value ([1]; 0.5 uM) was 1.1, the “Firefly F4, cmpd/DMSO (mean)” value ([1]; 2 uM) was 1.7 and the “Firefly F4, cmpd/DMSO (mean)” value ([1]; 10 uM) was 2.7. The “Firefly F4, cmpd/DMSO (mean)” value ([1]; 40 uM) was 3.5, the “F4, Firefly/Renilla for S/B(F4) > 3” value ([1]; 10% FBS, 40 uM) was 2.2 and the “Firefly, F4/pGL4 for S/B(F4) > 3” value ([1]; 10% FBS, 40 uM) was 1.9. For the same compound, the “Firefly, F4, 1% FBS, cmpd/DMSO (mean)” value ([1]; 1% FBS, 0.5 uM) was 1.2, the “Firefly, F4, 1% FBS, cmpd/DMSO (mean)” value ([1]; 1% FBS, 2 uM) was 1.5 and the “Firefly, F4, 1% FBS, cmpd/DMSO (mean)” value ([1]; 1% FBS, 10 uM) was 2.0. The “Firefly, F4, 1% FBS, cmpd/DMSO (mean)” value ([1]; 1% FBS, 40 uM) was 2.0, the “Firefly, F4, 10% FBS, cmpd/DMSO (mean)” value ([1]; 10% FBS, 0.5 uM) was 0.8 and the “Firefly, F4, 10% FBS, cmpd/DMSO (mean)” value ([1]; 10% FBS, 2 uM) was 0.9. For the same compound, the “Firefly, F4, 10% FBS, cmpd/DMSO (mean)” value ([1]; 10% FBS, 10 uM) was 1.4, the “Firefly, F4, 10% FBS, cmpd/DMSO (mean)” value ([1]; 10% FBS, 40 uM) was 3.3 and the fold induction at 0.5 µM [2, 5] was 1. It also gave a fold induction at 2 µM [2, 5] of 1.2, a fold induction at 10 µM [2, 5] of 1.4 and a fold induction at 40 µM [2, 5] of 1.6. It also gave a fold induction at 0.5 µM [2, 6] of 1.2, a fold induction at 2 µM [2, 6] of 1.1 and a fold induction at 10 µM [2, 6] of 1.6. It also gave a fold induction at 40 µM [2, 6] of 1.7, a fold induction at 0.5 µM [2, 7] of 0.9 and a fold induction at 2 µM [2, 7] of 1. For the same compound, the fold induction at 10 µM [2, 7] was 1.1, the fold induction at 40 µM [2, 7] was 1.5 and the fold induction at 0.5 µM [3, 8] was 1.2. It also gave a fold induction at 2 µM [3, 9] of 1.6, a fold induction at 10 µM [3, 10] of 2.1 and a fold induction at 40 µM [3, 11] of 1.5. The fold induction at 0.5 µM [3, 12] was 1.1, the fold induction at 2 µM [3, 13] was 1.3 and the fold induction at 10 µM [3, 14] was 1.9. It also gave a fold induction at 40 µM [3, 18] of 1.5, a fold induction at 0.5 µM [3, 15] of 0.8 and a fold induction at 2 µM [3, 16] of 1.1. The fold induction at 10 µM [3, 17] was 1.5, the fold induction at 40 µM [3, 19] was 1.7 and the “Firefly LBD, cmpd/DMSO (mean)” value ([4]; 0.5 uM) was 1.0. The “Firefly LBD, cmpd/DMSO (mean)” value ([4]; 2 uM) was 1.1, the “Firefly LBD, cmpd/DMSO (mean)” value ([4]; 10 uM) was 2.4 and the “Firefly LBD, cmpd/DMSO (mean)” value ([4]; 40 uM) was 2.6.
COc1ccc(CCN[C@H]2CS(=O)(=O)C[C@@H]2S(=O)(=O)c2ccc(Cl)cc2)cc1OC [Compound D129] was tested, and the “Firefly F4, cmpd/DMSO (mean)” value ([1]; 0.5 uM) was 1.2, the “Firefly F4, cmpd/DMSO (mean)” value ([1]; 2 uM) was 2.0 and the “Firefly F4, cmpd/DMSO (mean)” value ([1]; 10 uM) was 4.3. The “Firefly F4, cmpd/DMSO (mean)” value ([1]; 40 uM) was 3.4, the “F4, Firefly/Renilla for S/B(F4) > 3” value ([1]; 10% FBS, 40 uM) was 2.6 and the “Firefly, F4/pGL4 for S/B(F4) > 3” value ([1]; 10% FBS, 40 uM) was 1.8. For the same compound, the “Firefly, F4, 1% FBS, cmpd/DMSO (mean)” value ([1]; 1% FBS, 0.5 uM) was 0.9, the “Firefly, F4, 1% FBS, cmpd/DMSO (mean)” value ([1]; 1% FBS, 2 uM) was 1.1 and the “Firefly, F4, 1% FBS, cmpd/DMSO (mean)” value ([1]; 1% FBS, 10 uM) was 2.9. For the same compound, the “Firefly, F4, 1% FBS, cmpd/DMSO (mean)” value ([1]; 1% FBS, 40 uM) was 1.4, the “Firefly, F4, 10% FBS, cmpd/DMSO (mean)” value ([1]; 10% FBS, 0.5 uM) was 1.1 and the “Firefly, F4, 10% FBS, cmpd/DMSO (mean)” value ([1]; 10% FBS, 2 uM) was 0.8. The “Firefly, F4, 10% FBS, cmpd/DMSO (mean)” value ([1]; 10% FBS, 10 uM) was 1.9, the “Firefly, F4, 10% FBS, cmpd/DMSO (mean)” value ([1]; 10% FBS, 40 uM) was 4.1 and the fold induction at 0.5 µM [2, 5] was 1.1. It also gave a fold induction at 2 µM [2, 5] of 1.2, a fold induction at 10 µM [2, 5] of 1.4 and a fold induction at 40 µM [2, 5] of 1.6. The fold induction at 0.5 µM [2, 6] was 1.1, the fold induction at 2 µM [2, 6] was 1.1 and the fold induction at 10 µM [2, 6] was 1.6. For the same compound, the fold induction at 40 µM [2, 6] was 1.5, the fold induction at 0.5 µM [2, 7] was 1 and the fold induction at 2 µM [2, 7] was 0.9. For the same compound, the fold induction at 10 µM [2, 7] was 1.1, the fold induction at 40 µM [2, 7] was 1.5 and the fold induction at 0.5 µM [3, 8] was 1.4. For the same compound, the fold induction at 2 µM [3, 9] was 1.5, the fold induction at 10 µM [3, 10] was 2.9 and the fold induction at 40 µM [3, 11] was 1.6. The fold induction at 0.5 µM [3, 12] was 1.4, the fold induction at 2 µM [3, 13] was 1.2 and the fold induction at 10 µM [3, 14] was 1.9. The fold induction at 40 µM [3, 18] was 1.6, the fold induction at 0.5 µM [3, 15] was 1 and the fold induction at 2 µM [3, 16] was 1. The fold induction at 10 µM [3, 17] was 2, the fold induction at 40 µM [3, 19] was 2.2 and the “Firefly LBD, cmpd/DMSO (mean)” value ([4]; 0.5 uM) was 1.1. For the same compound, the “Firefly LBD, cmpd/DMSO (mean)” value ([4]; 2 uM) was 1.7, the “Firefly LBD, cmpd/DMSO (mean)” value ([4]; 10 uM) was 2.7 and the “Firefly LBD, cmpd/DMSO (mean)” value ([4]; 40 uM) was 2.4.

Source: US11377442B2, “Small molecule agonists and antagonists of NR2F6 activity” (ZANDER THERAPEUTICS, INC., priority 2016, dated 2022)
